Reference: US8815935B2, “Inhibitors of protein prenyltransferases” (The Regents of the University of California, priority 2008, dated 2014)

Legend:
[1] = target: GGTase I (K-Ras4B as substrate) (Homo sapiens, UniProt P49354+P53609); assay: GGTase I filter-binding assay, K-Ras4B as substrate (library screens); type: biochemical
Description: (§1) The pilot library was screened for inhibitors of protein geranylgeranyltransferase type I. Protein prenyltransferase assays were carried out by using filter binding. Two different substrates, RhoA and K-Ras4B, were used for the assay. RhoA ends with the CaaL motif and is an exclusive substrate for GGTase I, while K-Ras4B ends with the CaaX motif and is modified by both GGTase I and FTase.
(§2) In the assay, a fixed concentration of 100 μM was used and the results are plotted for the inhibition of RhoA (vertical axis) as well as for K-Ras4B (horizontal axis). […] They are 2,6-diaryl-N-tosyl-1,2,5,6-tetrahydropyridine-3-carboxylic acids, except P2-D5 that is missing an aryl substituent at C2.
The % activity of GGTase I was determined as follows: a working solution that contained each compound in DMSO at the concentration of 1 mM was prepared. The working solution was added to GGTase I reaction mixture so that the final concentration of the compound is 50 μM. GGTase I activity was assayed by incubating [^3H]GGPP with K-Ras4B or RhoA protein in the presence of GGTase I and examining radioactivity incorporated into the substrate protein by spotting onto a filter paper. After washing with TCA, ethanol and acetone, the radioactivity retained on the filter was determined by the use of a scintillation counter. GGTase I activity in the presence of DMSO was taken as a 100% value and the activity in the presence of the compound was shown as percent activity compared with the 100% value. […] For 6-aryl-4-mercapto-N-sulfonyl-piperidine-3-carboxylic acid 11 the 4-mercapto substituent appeared critical to endowing GGTase inhibitory activity. […] 4-Chlorobenzylthio substituent was the next best; 12 compounds out of 21 containing the 4-chlorobenzylthio moiety were active. 4-Benzylthio substituent was also good; 7 piperidines out of 21 bearing 4-benzylthio group were active. […] 19 imines (C15>C12=C41>C40>C01=C11>C05=C10=C30=C35=C37=C38>C02, C03, C04, C06, C39=C43) out of 21 appeared in the GGTIs. […] This corresponds to 47 6-aryl-4-mercapto-N-sulfonyl-piperidine-3-carboxylic acids out of 357 compounds.
A collection of 138 heterocycles was screened for their ability to inhibit the activity of human GGTase-I to geranylgeranylate K-Ras4B or RhoA. Purified GGTase-I was incubated with its substrate protein K-Ras4B or RhoA, [^3H]GGPP, and the 138 compounds. After 30 min, the degree of incorporation of tritiated geranylgeranyl groups was measured using a scintillation counter.

[2] = target: T1, GGTase-I (Rattus norvegicus, UniProt P53610+Q04631); assay: In vitro GGTase-I enzyme assay (IC50, kinetics); type: biochemical
T1 construct: purchased JENA BIOSCIENCE
Summary of the method: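 Rat GGTase-I (50 nM) with 0.5 μM [3H]-GGPP and 2 μM MBP-RhoA in Tris-HCl pH 7.5, MgCl2, ZnCl2, DTT, 2.5% DMSO, 10 min at 30 °C; radiolabel incorporation by TCA filter binding and scintillation. Kinetics: 5 min reactions varying GGPP or RhoA at fixed other components.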

[3] = target: T2, FTase (Rattus norvegicus, UniProt Q02293+Q04631); assay: In vitro FTase assay (K-Ras4B substrate, [3H]FPP); type: biochemical; details: P3-D9, P3-E5: concentration increased to 100 (unit not given)
T2 construct: purchased JENA BIOSCIENCE
Description: To further characterize the pilot library, inhibitors of protein farnesyltransferase were identified. This was accomplished by using K-Ras4B as a substrate protein, tritiated farnesylpyrophosphate ([^3H]FPP) and protein farnesyltransferase. See Finegold, A. A., Johnson, D. I., Farnsworth, C. C., Gelb, M. H., Judd, S. R., Glomset, J. A. and Tamanoi, F. (1991) Protein geranylgeranyltransferase of Saccharomyces cerevisiae is specific for Cys-Xaa-Xaa-Leu motif and requires the CDC43 gene product but not the DPR1 gene product. Proc. Natl. Acad. Sci. USA 88, 4448-4452. […] On the other hand, the structure of the compounds P1-F11, P2-B7 and P2-E9 resemble those of GGTIs. The FTI P1-F11 resembles the GGTI P1-F10, while the FTI P2-B7 resembles the GGTI P2-C10. The FTI P2-E9 is similar to the GGTI P2-G3. Similarity of some GGTI and FTI compounds may point to common structural features between the two closely related enzymes. As described before, FTase and GGTase I have similar three-dimensional structures and a shared alpha subunit. On the other hand, FTase specific inhibitors may recognize a region(s) that is different between the two enzymes.
Examples 2-8 illustrate assays of bioactivity. These methods are applicable to the compounds of the present invention having the particular linkers and scaffolds described herein, to determine their activity. […] Varying concentrations of the two compounds were added to each enzyme reaction. The FTase (protein farnesyltransferase) assay was carried out using K-Ras4B as a substrate protein, FTase (JENA Bioscience, San Diego, Calif.) and [3H]farnesyl pyrophosphate. Incubation was for 30 min at 37° C.
GGTase-I and FTase activities were determined by following the incorporation of radiolabeled isoprenoid [^3H]-geranylgeranyl or [^3H]-farnesyl into substrate proteins. FTase or GGTase-I (50 nM) were used to initiate reactions containing 0.4 μM of [^3H]-FPP or 0.5 μM of [^3H]-GGPP and 2 μM of MBP-tagged substrates (K-Ras4B for FTase; RhoA for GGTase-I) in 20 μl of buffer {50 mM Tris-HCl (pH 7.5), 10 mM MgCl2, […] and 5 mM DTT}. Inhibitors were added at the indicated concentrations. The final DMSO concentration was 2.5% for all samples.
Reactions were carried out for 10 min at 30° C. The reaction mixture was spotted onto a filter paper, treated with 10% trichloroacetic acid (TCA) followed by ethanol and acetone washing. The filter was counted using a scintillation counter. Kinetic assays in which the GGPP concentration was varied employed fixed concentrations of GGTase-I and RhoA, and reactions were carried out for 5 min. Similarly, fixed concentrations of GGTase-I and GGPP were used when the amount of RhoA was varied.

[4] = system: H-Ras farnesylation in NIH3T3 cells; assay: H-Ras mobility shift immunoblot in NIH3T3 cells; type: cell-based; details: 48 hours
Description: K562 cells were treated with modified compounds for 72 hours and then cell number was counted. IC50 values of cell viability relative to the DMSO were measured. […] Data represent the mean+/−S.D. of two measurements from two independent experiments. *, P<0.05 compared with the value for DMSO. […] Whole cell lysates from cells treated with DMSO, P5-H6, P61-A6, GGTI (GGTI-298), FTI (BMS-225975) or RabGGTI (P49-F6) for 48 hours were prepared and processed for immunoblot analysis using antibody against unprenylated form of Rap1 (C: upper panel), Total-Rap1 (C: middle panel), H-Ras (D: upper panel), Rab5b (E: upper panel) or actin (C, D, and E: lower panel). The immunoblots shown represent two independent experiments for each treatment.
This was examined by using a farnesylated protein H-Ras.

[5] = target: GGTase I (RhoA as substrate) (Homo sapiens, UniProt P49354+P53609); assay: GGTase I filter-binding assay, RhoA as substrate (library screens); type: biochemical; details: compound 50 μM, DMSO = 100%, smaller = better inhibition
Description: as §1, §2
The % activity of GGTase I was determined as follows: a working solution that contained each compound in DMSO at the concentration of 1 mM was prepared. The working solution was added to GGTase I reaction mixture so that the final concentration of the compound is 50 μM. GGTase I activity was assayed by incubating [^3H]GGPP with K-Ras4B or RhoA protein in the presence of GGTase I and examining radioactivity incorporated into the substrate protein by spotting onto a filter paper. After washing with TCA, ethanol and acetone, the radioactivity retained on the filter was determined by the use of a scintillation counter. GGTase I activity in the presence of DMSO was taken as a 100% value and the activity in the presence of the compound was shown as percent activity compared with the 100% value. […] For 6-aryl-4-mercapto-N-sulfonyl-piperidine-3-carboxylic acid 11 the 4-mercapto substituent appeared critical to endowing GGTase inhibitory activity. […] 4-Chlorobenzylthio substituent was the next best; 12 compounds out of 21 containing the 4-chlorobenzylthio moiety were active. […]
A collection of 138 heterocycles was screened for their ability to inhibit the activity of human GGTase-I to geranylgeranylate K-Ras4B or RhoA. […] After 30 min, the degree of incorporation of tritiated geranylgeranyl groups was measured using a scintillation counter.

SMILES | relative inhibition of RhoA-driven versus K-Ras4B-driven GGTase I activity ([1]; pilot screen 100 μM, library screen 50 μM) | inhibition of GGTase I (FIG. 16 controls) [2] | inhibition of FTase activity (FIG. 16) [3] | mobility shift of H-Ras (protein farnesylation) [4] | % activity of GGTase I for K-Ras4B in the presence of the compound ([1]; compound 50 μM, DMSO = 100%, smaller = better inhibition, 50 µM) [%] | % activity of GGTase I for RhoA in the presence of the compound [5] [%]
COC(=O)[C@H](CC(C)C)NC(=O)c1ccc(NC[C@@H](N)CS)cc1-c1cccc2ccccc12 [GGTI-298, reference compound] | inhibit RhoA-driven GGTase I activity slightly better than K-Ras4B-driven GGTase I activity | inhibits GGTase I | little inhibition | no such mobility shift |  | 
Cc1ccccc1S(=O)(=O)N1C(c2ccc(Cl)cc2)CC=C(C(=O)O)[C@@H]1c1ccccc1 (stereo partly drawn) [drawing 42] |  |  |  |  | 5.4 | 3.0
